# Test results as given in US11739070B2, “C5A receptor modulators” (IDORSIA PHARMACEUTICALS LTD, priority 2018, dated 2023).
# Target: T1, C5AR1 (Homo sapiens, UniProt P21730)
# T1 construct: host or cells: CHO-K1
# T1 sequence (P21730 1-350): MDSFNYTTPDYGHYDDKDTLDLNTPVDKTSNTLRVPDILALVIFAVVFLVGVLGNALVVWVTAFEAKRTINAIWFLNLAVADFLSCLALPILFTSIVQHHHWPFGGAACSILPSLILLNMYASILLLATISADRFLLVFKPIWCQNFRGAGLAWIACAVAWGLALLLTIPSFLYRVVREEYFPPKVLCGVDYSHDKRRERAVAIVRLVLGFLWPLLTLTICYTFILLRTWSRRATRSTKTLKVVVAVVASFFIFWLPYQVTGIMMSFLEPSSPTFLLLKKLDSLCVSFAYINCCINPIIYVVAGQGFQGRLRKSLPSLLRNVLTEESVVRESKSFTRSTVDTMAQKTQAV
# Test: hC5a DISCO IC50 assay (PathHunter beta-arrestin, antagonist mode)
# Format: cell-based
# Settings: CHO-K1 C5AR1 beta-arrestin cell line; antagonist vs 1-10 nM C5a agonist; geometric mean values; read-out: C5aR IC50
# In short: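 Antagonist added first, then 1-10 nM C5a agonist; cells incubated 1.5 h at 37 °C. Beta-arrestin signal developed with PathHunter detection reagent, 45 min at RT. IC50 in nmol/l from serial antagonist dilutions, reported as geometric mean of several measurements.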
row,IC50 [µM],SMILES
1,0.036,"COc1cccc2c1n(Cc1ccccc1C(F)(F)F)c(=O)n2C1CCCN(c2c(C)cccc2F)CC1 (stereo not drawn) [Example 184, 1-[1-(2-Fluoro-6-methyl-phenyl)-azepan-4-yl]-4-methoxy-3-(2-trifluoromethyl-benzyl)-1,3-dihydro-benzoimidazol-2-one]"
2,0.073,"COc1cccc2c1n(Cc1ccccc1C(F)(F)F)c(=O)n2[C@@H]1CCN(c2c(F)cccc2C#CCN2CCOCC2)C1 [Example 159, 1-{(R)-1-[2-Fluoro-6-(3-morpholin-4-yl-prop-1-ynyl)-phenyl]-pyrrolidin-3-yl}-4-methoxy-3-(2-trifluoromethyl-benzyl)-1,3-dihydro-benzoimidazol-2-one]"
3,0.021,"COc1cccc2c1n(Cc1ccccc1C(F)(F)F)c(=O)n2[C@@H]1CCN(c2c(F)cccc2CN2CCOCC2)C1 [Example 115, 1-[(R)-1-(2-Fluoro-6-morpholin-4-ylmethyl-phenyl)-pyrrolidin-3-yl]-4-methoxy-3-(2-trifluoromethyl-benzyl)-1,3-dihydro-benzoimidazol-2-one]"
4,0.046,"COc1cccc2c1n(Cc1ccccc1C(F)(F)F)c(=O)n2C1CCN(c2ccccc2OCC2CC2)CC1 [Example 240, 1-[1-(2-Cyclopropylmethoxy-phenyl)-piperidin-4-yl]-4-methoxy-3-(2-trifluoromethyl-benzyl)-1,3-dihydro-benzoimidazol-2-one]"
5,0.008,"COc1cccc2c1n(Cc1ccccc1OC(F)(F)F)c(=O)n2[C@@H]1CCN(c2c(F)cccc2F)C1 [Example 23, 1-[(R)-1-(2,6-Difluoro-phenyl)-pyrrolidin-3-yl]-4-methoxy-3-(2-trifluoromethoxy-benzyl)-1,3-dihydro-benzoimidazol-2-one]"
6,0.069,"COc1cccc2c1n(Cc1ccccc1C(F)(F)F)c(=O)n2[C@@H]1CCN(c2c(F)cccc2N2CCOCC2)C1 [Example 161, 1-[(R)-1-(2-Fluoro-6-morpholin-4-yl-phenyl)-pyrrolidin-3-yl]-4-methoxy-3-(2-trifluoromethyl-benzyl)-1,3-dihydro-benzoimidazol-2-one]"
7,0.621,"COc1cccc2c1n(Cc1ccccc1C(F)(F)F)c(=O)n2C1CCN(C(=O)OC(C)(C)C)CC1 [Example 1, 4-[4-Methoxy-2-oxo-3-(2-trifluoromethyl-benzyl)-2,3-dihydro-benzoimidazol-1-yl]-piperidine-1-carboxylic acid tert-butyl ester]"
8,0.03,"Cc1cccc(C)c1N1CC[C@@H](n2c(=O)n(Cc3ccccc3C(F)(F)F)c3c(OCCO)cccc32)C1 [Example 52, 1-[(R)-1-(2,6-Dimethyl-phenyl)-pyrrolidin-3-yl]-4-(2-hydroxy-ethoxy)-3-(2-trifluoromethyl-benzyl)-1,3-dihydro-benzoimidazol-2-one]"
9,0.264,"COc1cccc2c1n(Cc1nccnc1C(F)(F)F)c(=O)n2[C@@H]1CCN(c2c(F)cccc2C#N)C1 [Example 111, 3-Fluoro-2-{(R)-3-[4-methoxy-2-oxo-3-(3-trifluoromethyl-pyrazin-2-ylmethyl)-2,3-dihydro-benzoimidazol-1-yl]-pyrrolidin-1-yl}-benzonitrile]"
10,0.036,"COc1cccc2c1n(Cc1ccccc1OC(F)(F)F)c(=O)n2[C@@H]1CCN(C(=O)OC(C)(C)C)C1 [Example 20, (R)-3-[4-Methoxy-2-oxo-3-(2-trifluoromethoxy-benzyl)-2,3-dihydro-benzoimidazol-1-yl]-pyrrolidine-1-carboxylic acid tert-butyl ester]"
11,0.017,"COc1nccnc1Cn1c(=O)n([C@@H]2CCN(c3c(C)cccc3F)C2)c2cccc(OC)c21 [Example 169, 1-[(R)-1-(2-Fluoro-6-methyl-phenyl)-pyrrolidin-3-yl]-4-methoxy-3-(3-methoxy-pyrazin-2-ylmethyl)-1,3-dihydro-benzoimidazol-2-one]"
12,0.133,"COc1cccc2c1n(Cc1ccccc1C(F)(F)F)c(=O)n2[C@@H]1CCN(c2c(F)cccc2CN2CCC(OC)CC2)C1 [Example 137, 1-{(R)-1-[2-Fluoro-6-(4-methoxy-piperidin-1-ylmethyl)-phenyl]-pyrrolidin-3-yl}-4-methoxy-3-(2-trifluoromethyl-benzyl)-1,3-dihydro-benzoimidazol-2-one]"
13,0.313,"COc1cccc2c1n(Cc1ccccc1C(F)(F)F)c(=O)n2C1CC2CC1CN2C(=O)OC(C)(C)C (stereo not drawn) [Example 188, 5-[4-Methoxy-2-oxo-3-(2-trifluoromethyl-benzyl)-2,3-dihydro-benzoimidazol-1-yl]-2-aza-bicyclo[2.2.1]heptane-2-carboxylic acid tert-butyl ester]"
14,0.191,"COc1ccnnc1Cn1c(=O)n([C@@H]2CCN(c3c(C)cccc3F)C2)c2cccc(OC)c21 [Example 95, 1-[(R)-1-(2-Fluoro-6-methyl-phenyl)-pyrrolidin-3-yl]-4-methoxy-3-(4-methoxy-pyridazin-3-ylmethyl)-1,3-dihydro-benzoimidazol-2-one]"
15,0.139,"COc1cccc2c1n(Cc1ccccc1C(F)(F)F)c(=O)n2[C@H]1CN(C(=O)OC(C)(C)C)C[C@@H]1C (relative stereo) [Example 196, (3R*,4S*)-3-[4-Methoxy-2-oxo-3-(2-trifluoromethyl-benzyl)-2,3-dihydro-benzoimidazol-1-yl]-4-methyl-pyrrolidine-1-carboxylic acid tert-butyl ester]"
16,0.066,"COc1cccc2c1n(Cc1ccccc1C(F)(F)F)c(=O)n2[C@@H]1CCN(C(=O)OC(C)(C)C)C1 [Example 6, (R)-3-[4-Methoxy-2-oxo-3-(2-trifluoromethyl-benzyl)-2,3-dihydro-benzoimidazol-1-yl]-pyrrolidine-1-carboxylic acid tert-butyl ester]"
17,0.911,"COc1cccc2c1n(Cc1ccccc1C(F)(F)F)c(=O)n2[C@@H]1CCN(c2cc(C)nn2C)C1 [Example 79, 1-[(R)-1-(2,5-Dimethyl-2H-pyrazol-3-yl)-pyrrolidin-3-yl]-4-methoxy-3-(2-trifluoromethyl-benzyl)-1,3-dihydro-benzoimidazol-2-one]"
18,0.027,"COc1cccc2c1n(Cc1ccccc1C(F)(F)F)c(=O)n2[C@@H]1CCN(c2c(F)cncc2F)C1 [Example 34, 1-[(R)-1-(3,5-Difluoro-pyridin-4-yl)-pyrrolidin-3-yl]-4-methoxy-3-(2-trifluoromethyl-benzyl)-1,3-dihydro-benzoimidazol-2-one]"
19,1.52,"COc1cccc2c1n(Cc1ccccc1C(F)(F)F)c(=O)n2C1CCN(C(=O)c2ccccc2)CC1 [Example 30, 1-(1-Benzoyl-piperidin-4-yl)-4-methoxy-3-(2-trifluoromethyl-benzyl)-1,3-dihydro-benzoimidazol-2-one]"
20,0.023,"COc1cccc2c1n(Cc1ccccc1C(F)(F)F)c(=O)n2[C@@H]1CCN(c2c(F)cccc2C=O)C1 [Example 83, 3-Fluoro-2-{(R)-3-[4-methoxy-2-oxo-3-(2-trifluoromethyl-benzyl)-2,3-dihydro-benzoimidazol-1-yl]-pyrrolidin-1-yl}-benzaldehyde]"
21,0.175,"COc1cccc2c1n(Cc1sc(C)nc1C(F)(F)F)c(=O)n2[C@@H]1CCN(c2c(C)cccc2F)C1 [Example 221, 1-[(R)-1-(2-Fluoro-6-methyl-phenyl)-pyrrolidin-3-yl]-4-methoxy-3-(2-methyl-4-trifluoromethyl-thiazol-5-ylmethyl)-1,3-dihydro-benzoimidazol-2-one]"
22,0.026,"COc1cccc2c1n(Cc1nccnc1C(C)C)c(=O)n2C1CCN(c2c(C)cccc2F)CC1 [Example 187, 1-[1-(2-Fluoro-6-methyl-phenyl)-piperidin-4-yl]-3-(3-isopropyl-pyrazin-2-ylmethyl)-4-methoxy-1,3-dihydro-benzoimidazol-2-one]"
23,0.025,"COc1cccc2c1n(Cc1cnccc1C(F)(F)F)c(=O)n2C1CCN(c2c(C)cccc2C)CC1 [Example 58, 1-[1-(2,6-Dimethyl-phenyl)-piperidin-4-yl]-4-methoxy-3-(4-trifluoromethyl-pyridin-3-ylmethyl)-1,3-dihydro-benzoimidazol-2-one]"
24,0.016,"COc1ccnc2c1n(Cc1ccccc1C(F)(F)F)c(=O)n2[C@@H]1CCN(c2c(C)cccc2C)C1 [Example 45, 3-[(R)-1-(2,6-Dimethyl-phenyl)-pyrrolidin-3-yl]-7-methoxy-1-(2-trifluoromethyl-benzyl)-1,3-dihydro-imidazo[4,5-b]pyridin-2-one]"
25,0.053,"COc1cccc2c1n(Cc1ccccc1C(F)(F)F)c(=O)n2[C@@H]1CCN(c2c(F)cccc2CCN2CCOCC2)C1 [Example 131, 1-{(R)-1-[2-Fluoro-6-(2-morpholin-4-yl-ethyl)-phenyl]-pyrrolidin-3-yl}-4-methoxy-3-(2-trifluoromethyl-benzyl)-1,3-dihydro-benzoimidazol-2-one]"
26,0.017,"Cc1cccc(F)c1N1CC[C@@H](n2c(=O)n(Cc3ccccc3C(F)(F)F)c3c(OC4COC4)nccc32)C1 [Example 127, 1-[(R)-1-(2-Fluoro-6-methyl-phenyl)-pyrrolidin-3-yl]-4-(oxetan-3-yloxy)-3-(2-trifluoromethyl-benzyl)-1,3-dihydro-imidazo[4,5-c]pyridin-2-one]"
27,2.43,"COc1nccc2c1n(Cc1ccccc1C(F)(F)F)c(=O)n2[C@@H]1CCN(C(=O)OC(C)(C)C)C1 [Example 39, (R)-3-[4-Methoxy-2-oxo-3-(2-trifluoromethyl-benzyl)-2,3-dihydro-imidazo[4,5-c]pyridin-1-yl]-pyrrolidine-1-carboxylic acid tert-butyl ester]"
